Test [1] relates to tissue strips obtained from Landrace pig bladders. Nature of the test: Functional potassium channel opening activity in isolated bladder strips (field-stimulated twitch). To be noted: for Index: ED50 for P1075 divided by ED50 for the test agonist in a given tissue, averaged; for EC50 / Emax: Sus scrofa; for EC50: amount of agent necessary to cause 50% of the agent's maximal response, read-out: ED50 (the source's name); for Emax: maximal efficacy relative to P1075, field stimulation 0.05 Hz, 0.5 ms, 20 volts. The method, then: Compounds were evaluated for functional potassium channel opening activity using tissue strips obtained from Landrace pig bladders.
Landrace pig bladders were obtained from female Landrace pigs of 9-30 kg. Landrace pigs were euthanized with an intraperitoneal injection of pentobarbital solution, Somlethal®, J. A. Webster Inc., Sterling, Mass. The entire bladder was removed and immediately placed into Krebs Ringer bicarbonate solution (composition, mM: NaCl, 120; NaHCO3, 20; dextrose, 11; KCl, 4.7; CaCl2, 2.5; MgSO4, 1.5; KH2PO4, 1.2; K2EDTA, 0.01, equilibrated with 5% CO2/95% O2pH 7.4 at 37° C.). Propranolol (0.004 mM) was included in all of the assays to block β-adrenoceptors. The trigonal and dome portions were discarded. Strips 3-5 mm wide and 20 mm long were prepared from the remaining tissue cut in a circular fashion. The mucosal layer was removed. One end was fixed to a stationary glass rod and the other to a Grass FT03 transducer at a basal preload of 1.0 gram. Two parallel platinum electrodes were included in the stationary glass rod to provide field stimulation of 0.05 Hz, 0.5 milli-seconds at 20 volts. This low frequency stimulation produced a stable twitch response of 100-500 centigrams. Tissues were allowed to equilibrate for at least 60 minutes and primed with 80 mM KCl. A control concentration response curve (cumulative) was generated for each tissue using the potassium channel opener P1075 as the control agonist. […] After a 60 minute rinsing period, a concentration response curve (cumulative) was generated for the test agonist in the same fashion as that used for the control agonist P1075. The maximal efficacy of each compound (expressed as % relative to P1075) is reported. The amount of agent necessary to cause 50% of the agent's maximal response (ED50) was calculated using “ALLFIT” (DeLean et al., Am. J. Physiol., 235, E97 (1980)), hereby incorporated by reference. Agonist potencies were also expressed as an index relative to P1075. The index was calculated by dividing the ED50 for P1075 by the ED50 for the test agonist in a given tissue. Each tissue was used for only one test agonist, and the indices obtained from each tissue were averaged to provide an average index of potency.

For test [2], the system named is primary cultured guinea-pig urinary bladder (GPB) cells. Nature of the test: Membrane hyperpolarization (MHP) assay, DiBAC(4)3 / FLIPR. Format: cell-based. To be noted: for EC50: concentration that elicits 50% of the maximal response for the test sample; for Emax: maximal steady-state hyperpolarization, normalized to response with 10 μM P1075 (100%). As for the experimental part:
Compounds were evaluated for potassium channel opening activity using primary cultured guinea-pig urinary bladder (GPB) cells.
For the preparation of urinary bladder smooth muscle cells, urinary bladders were removed from male guinea-pigs (Hartley, Charles River, Wilmington, Mass.) weighing 300-400 g and placed in ice-cold Ca^2+-free Krebs solution (Composition, mM: KCl, 2.7; KH2PO4, 1.5; NaCl, 75; Na2HPO4, 9.6; Na2HPO4.7H2O, 8; MgSO4, 2; glucose, 5; HEPES, 10; pH 7.4). Cells were isolated by enzymatic dissociation as previously described with minor modifications (Klockner, U. and Isenberg, G., Pflugers Arch. (1985), 405, 329-339), hereby incorporated by reference. The bladder was cut into small sections and incubated in 5 mL of the Kreb's solution containing I mg/mL collagenase (Sigma, St. Louis, Mo.) and 0.2 mg/mL pronase (Calbiochem, La Jolla, Calif.) with continuous stirring in a cell incubator for 30 minutes. The mixture was then centrifuged at 1300×g for 5 minutes, and the pellet resuspended in Dulbecco's PBS (GIBCO, Gaithersburg, Md.) and recentrifuged to remove residual enzyme. The cell pellet was resuspended in 5 mL growth media (composition: Dulbecco's modified Eagle's medium supplemented with 10% fetal bovine serum, 100 units/mL penicillin, 100 units/mL streptomycin and […] amphotericin B) and further dissociated by pipetting the suspension through a flame-polished Pasteur pipette and passing it through a polypropylene mesh membrane (Spectrum, Houston, Tex.). The cell density was adjusted to 100,000 cells/mL by resuspension in growth media. Cells were plated in clear-bottomed black 96-well plates (Packard) for membrane potential studies at a density of 20,000 cells/well and maintained in a cell incubator with 90% air: 10% CO2 until confluent. Cells were confirmed to be of smooth muscle type by cytoskeletal staining using a monoclonal mouse anti human-α-smooth muscle actin (Biomeda, Foster City, Calif.).
Functional activity at potassium channels was measured by evaluating changes in membrane potential using the bis-oxonol dye DiBAC(4) (Molecular Probes) in a 96-well cell-based kinetic assay system, Fluorescent Imaging Plate Reader (FLIPR) (K. S. Schroeder et al., J. Biomed. Screen., v. 1 pp. 75-81 (1996)), hereby incorporated by reference. DiBAC(4)3 is an anionic potentiometric probe which partitions between cells and extracellular solution in a membrane potential-dependent manner. With increasing membrane potential (for example, K^+ depolarization), the probe further partitions into the cell; this is measured as an increase in fluorescence due to dye interaction with intracellular lipids and proteins. Conversely, decreasing membrane potential (hyperpolarization by potassium channel openers) evokes a decrease in fluorescence.
Confluent guinea-pig urinary bladder cells cultured in black clear-bottomed 96-well plates were rinsed twice with […] assay buffer (composition, mM: HEPES, 20; NaCl, 120; KCl, 2; CaCl2, 2; MgCl2, 1; glucose, 5; pH 7.4 at 25° C.) containing 5 μM DiBAC(4)3 and incubated with […] of the buffer in a cell incubator for 30 minutes at 37° C. to ensure dye distribution across the membrane. After recording the baseline fluorescence for 5 minutes, the reference or test compounds, prepared at 10 times the concentration in the assay buffer, were added directly to the wells. Changes in fluorescence were monitored for an additional 25 minutes. Hyperpolarization responses were corrected for any background noise and were normalized to the response observed with 10 μM of the reference compound P1075 (assigned as 100%), a potent opener of smooth muscle KATP channels (Quast et al., Mol. Pharmacol., v. 43 pp. 474-481 (1993)), hereby incorporated by reference.
Routinely, five concentrations of P1075 or test compounds (log or half-log dilutions) were evaluated and the maximal steady-state hyperpolarization values (expressed as % relative to P1075) plotted as a function of concentration. […]

For `Cc1ccc(C(=O)NC(NC(=S)Nc2cccc([N+](=O)[O-])c2)c2ccccc2)cc1` (centres unmarked) [Example 33, 4-methyl-N-[{[(3-nitroanilino)carbothioyl]amino}(phenyl)methyl]benzamide], in test [1], the Index amounted to 0.027, the EC50 is 12000 nM and the Emax is 80%. In test [2] (Cavia porcellus), this compound had an EC50 of 220 nM and an Emax of 102%.

As for `C=CC(C)(C)CC(NC(=O)c1ccc(Cl)cc1)NC(=NC#N)Nc1cccnc1` (centres unmarked) [Example 92, 4-chloro-N-(1-{[(cyanoimino)(3-pyridinylamino)methyl]amino}-3,3-dimethyl-4-pentenyl)benzamide], in test [1], the Index was 0.047, the EC50 came to 1800 nM and the Emax was 76%. In test [2] (Cavia porcellus), this compound showed an EC50 of 250 nM and an Emax of 71%.

`CCC(CC)(CCC#N)C(NC(=O)c1ccc(Cl)cc1)NC(=NC#N)Nc1cccnc1` (centres unmarked) [Example 65, 4-chloro-N-(4-cyano-1-{[(cyanoimino)(3-pyridinylamino)methyl]amino}-2,2-diethylbutyl)benzamide] gave an Emax in test [2] (Cavia porcellus) of 89%. This compound registered an EC50 in test [2] of 130 nM.

In test [2] (Cavia porcellus), `N#CN=C(Nc1cccnc1)NC(NC(=O)c1ccc(Cl)cc1)C(Cl)(Cl)Cl` (centres unmarked) [Example 45, 4-chloro-N-(2,2,2-trichloro-1-{[(cyanoimino)(3-pyridinylamino)methyl]amino}ethyl)benzamide] displayed an EC50 of 40 nM and an Emax of 92%.

`CC1=C(CC(NC(=O)c2ccc(Cl)cc2)NC(=NC#N)Nc2cccnc2)C(C)(C)CCC1` (centres unmarked) [Example 66, 4-chloro-N-[1-{[(cyanoimino)(3-pyridinylamino)methyl]amino}-2-(2,6,6-trimethyl-1-cyclohexen-1-yl)ethyl]benzamide]: in test [2] (Cavia porcellus), the Emax was 79%. This compound also returned an EC50 in test [2] of 82 nM.

For `CCCCC(C)(C)C(NC(=O)c1ccc(Cl)cc1)NC(=NC#N)Nc1cccnc1` (centres unmarked) [Example 94, 4-chloro-N-(1-{[(cyanoimino)(3-pyridinylamino)methyl]amino}-2,2-dimethylhexyl)benzamide], in test [2] (Cavia porcellus), the EC50 came to 160 nM and the Emax came out at 82%.

As for `CC(Cl)(Cl)C(NC(=O)c1ccc(Cl)cc1)NC(=NC#N)Nc1ccc(C(F)(F)F)nc1` (centres unmarked) [Example 158, 4-chloro-N-{2,2-dichloro-1-[((cyanoimino){[6-(trifluoromethyl)-3-pyridinyl]amino}methyl)amino]propyl}benzamide], in test [1], the Index stood at 0.061, the EC50 amounted to 4800 nM and the Emax came to 92%.

`CC(Cl)(Cl)C(NC(=O)c1cccs1)NC(=NC#N)Nc1ccc(Cl)nc1` (centres unmarked) [Example 192, N-(2,2-dichloro-1-{[[(6-chloro-3-pyridinyl)amino](cyanoimino)methyl]amino}propyl)-2-thiophenecarboxamide]: in test [1], the Index amounted to 0.019, the EC50 was 3100 nM and the Emax was determined as 99%.

Regarding `CC(Cl)(Cl)C(NC(=O)c1cccc(Cl)c1)NC(=NC#N)Nc1ccccc1F` (centres unmarked) [Example 172, 3-chloro-N-(2,2-dichloro-1-{[(cyanoimino)(2-fluoroanilino)methyl]amino}propyl)benzamide], in test [1], the Index is reported as 0.507, the EC50 was 490 nM and the Emax is 53%.

As to `CC(C)(C)CC(NC(=O)c1ccc(C(F)(F)F)cc1)NC(=NS(=O)(=O)C(F)(F)F)Nc1cccnc1` (centres unmarked) [Example 189, N-{3,3-dimethyl-1-[((3-pyridinylamino){[(trifluoromethyl)sulfonyl]imino}methyl)amino]butyl}-4-(trifluoromethyl)benzamide], in test [1], the Index worked out at 0.078, the EC50 was determined as 930 nM and the Emax turned out to be 66%.

`CC(Cl)(Cl)C(NC(=O)c1cc(F)cc(F)c1)NC(=NC#N)Nc1cccnc1` (centres unmarked) [Example 120, N-(2,2-dichloro-1-{[(cyanoimino)(3-pyridinylamino)methyl]amino}propyl)-3,5-difluorobenzamide]: in test [1], the Index amounted to 0.017, the EC50 amounted to 7500 nM and the Emax is 84%.

For `CC(C)(C)C(NC(=O)c1cc(F)cc(F)c1)NC(=NC#N)Nc1cccnc1` (centres unmarked) [Example 110, N-(1-{[(cyanoimino)(3-pyridinylamino)methyl]amino}-2,2-dimethylpropyl)-3,5-difluorobenzamide], in test [1], the Index came to 0.017, the EC50 turned out to be 6200 nM and the Emax stood at 61%.

As for `N#CN=C(Nc1cccnc1)NC(NC(=O)c1ccc(Cl)cc1)C(F)(F)C(F)(F)F` (centres unmarked) [Example 121, 4-chloro-N-(1-{[(cyanoimino)(3-pyridinylamino)methyl]amino}-2,2,3,3,3-pentafluoropropyl)benzamide], in test [1], the Index turned out to be 0.044, the EC50 is 4800 nM and the Emax was found to be 89%.

For the compound `CC(Cl)(Cl)C(NC(=O)c1cc(F)cc(F)c1)NC(=NC#N)Nc1ccc(C(F)(F)F)nc1` (centres unmarked) [Example 155, N-{2,2-dichloro-1-[((cyanoimino){[6-(trifluoromethyl)-3-pyridinyl]amino}methyl)amino]propyl}-3,5-difluorobenzamide], in test [1], the Index stood at 0.022, the EC50 was found to be 2500 nM and the Emax is 95%.

In test [2] (Cavia porcellus), `C=CCOCC(CC)(COCC=C)C(NC(=O)c1ccc(Cl)cc1)NC(=NC#N)Nc1cccnc1` (centres unmarked) [Example 96, N-(2,2-bis[(allyloxy)methyl]-1-{[(cyanoimino)(3-pyridinylamino)methyl]amino}butyl)-4-chlorobenzamide] registered an EC50 of 240 nM and an Emax of 93%.

For the origin of these results see patent US20020028836A1, “Potassium channel openers” (priority 2000, published 2002).
